Test results reported in patent publication US7576054B2, “Compositions and methods for treating bacteria” (Biosynexus Incorporated, priority 2005, dated 2009).
Entries after “also recorded” stand apart in the source; their conditions may differ. Bridge positions count the residues as written; N and C are the ends. Square brackets hold non-standard residues; d marks the D form. Peptide text beside a SMILES is read from it. * marks the point of attachment. Ileψ(thiazoline)Cys = CC[C@H](C)[C@H](N)C1=N[C@H](C(=O)*)CS1; dOrn = NCCC[C@@H](N)C(=O)O

What was measured:
[1] = tested on: S. aureus; assay: In vitro MIC of nisin alone or in combination (log reduction of viable S. aureus); type: cell-based; conditions: FIG. 11
Method: In order to determine if nisin could function in a synergistic way with other antimicrobials to treat (e.g., kill and/or inhibit growth of) bacteria in vitro, the minimum inhibitory concentration (MIC) of nisin alone or nisin in combination with either mupirocin, neomycin or gentamicin were tested. The MIC was determined by calculating the log reduction of viable S. aureus following incubation with the amounts of nisin and other antimicrobials as indicated in FIG. 11.

[2] = tested on: S. aureus; assay: Superficial skin abrasion / superficial wound skin infection model; type: in vivo; conditions: for synergy with nisin in the skin infection model: used in combination with nisin; for synergy with mupirocin in the skin infection model: used in combination with mupirocin
Method: Mice provided a superficial skin abrasion and inoculated with S. aureus as described in Example 2 were treated with a composition comprising a combination of 6% nisin and 0.1% gentamicin.
In order to determine if nisin could function in a synergistic way with other antimicrobials to treat (e.g., kill and/or inhibit growth of) bacteria in a superficial wound model (See Example 2), nisin was used in combination with either neomycin or gallidermin and tested.
In order to determine if nisin or gallidermin could function in a synergistic way with other antimicrobials to treat (e.g., kill and/or inhibit growth of) bacteria in a superficial wound model (See Example 2), nisin or gallidermin were used in combination with either gentamicin and mupirocin, respectively, and tested. Nisin did synergize with gentamicin and gallidermin did synergize with mupirocin to reduce bacterial counts in the skin infection model.
In order to determine if mupirocin could function in a synergistic way with bacitracin to treat (e.g., kill and/or inhibit growth of) bacteria in a superficial wound model (See Example 2), mupirocin was used in combination with bacitracin and tested for the ability to treat bacteria.

[3] = tested on: S. aureus; assay: Mouse skin infection model: S. aureus infection in abraded mouse skin; type: in vivo; conditions: for efficacy compared with independent administration of nisin: PEG ointment or G&W petrolatum base bacitracin formulation, FIG. 2; for additive or synergistic effect when combined with nisin: skin infection, combined with nisin (See Example 1)
Method: (§1) Mouse Skin Infection Model: An overnight culture of S. aureus grown in tryptic soy broth (SA8; range from 1 to 6×10^9 CFUs/mL) was centrifuged at 4000×g for 10 minutes and resuspended in an equal volume of phosphate buffered saline (PBS). The bacteria were diluted to a percent transmittance of 40 (Spectronic 20D+) and diluted a subsequent 1:1000 in PBS for a final bacteria concentration of about 3×10^5. SKH1 (hrhr) hairless mice (Charles River) were sedated with 0.2 mL of ketamine (80 mg/kg) and xylazine (32 mg/kg) delivered intraperitoneally. The upper back of the mice were scrubbed with a 70% alcohol wipe and allowed to dry. Fine abrasions were made on the backs' of the mice between the shoulders using 150 grit sandpaper. Bacteria were swabbed over the abraded area with a sterile, cotton-tipped applicator until the area was saturated with the solution.
Topical Ointment: 74 g of PEG 400 and 24 g of PEG 3350 were added to a 250 mL glass beaker and heated until all of the PEG 3350 was melted. The solution was stirred well and allowed to cool to room temperature, which results in a smooth, opaque ointment. Powdered nisin and bacitracin were added to the ointment on a w/w basis and stirred until homogenously mixed. For formulations containing mupirocin, 1 g of Bactroban Ointment was weighed into a container and powdered nisin added to 2% or 6% (w/w) and mixed well. Lysostaphin was first dissolve to a concentration of about 150 mg/mL in DI water before mixing into the ointment to give a final concentration of 2% (w/w).
Treatment of Infected Skin with Topical Ointment: Treatments aimed to eradicate S. aureus skin infections in the mouse model were started on the morning after infection (Day 1). About 0.1 g of the topical ointments containing nisin (0, 2, or 6% w/w), mupirocin (0 or 2%), bacitracin (0 or 500U), and lysostaphin (0 or 2% w/w) were swabbed over the infected area 3 times a day on Days 1 and 2 using a sterile, polyester-tipped applicator. The mice were sacrificed by CO2 asphyxiation on the morning of Day 3 and a 0.5-cm^2 patch of skin around the infected area was excise. The skin sample was dissected and placed into a test tube containing 1 mL of 5 mg/mL proteinase K, 20 mg/mL esterase, and 20 mg/mL activated charcoal in PBS to neutralize the activity of the antibacterial agents. Bacteria were dislodged from the skin sample by sonication: 2 minute treatments per sample with alternating 5 seconds at 3 W and 5 seconds at 0 W in a Virsonic 600 with microtip (VirTis). After mixing by vortex, 50 μL of each sample was streaked onto blood agar plates, incubated at 37° C. overnight, and the colonies were counted and compared to untreated controls.
For the following data, except where noted in FIG. 2, all antibiotic formulations were in a common polyethylene glycol (PEG) ointment (PEG 400 plus PEG 3350).

[4] = tested on: P. aeruginosa; conditions: previously shown; cited from earlier work
[5] = tested on: Staphylococcus aureus ATCC #6538; assay: Inoculated partial thickness wounds in pig; type: in vivo; conditions: treated twice per day, mean ± SD
Method: Experimental animals. A young female specific pathogen free (SPF: Looper Farms, North Carolina) pig weighing 25-30 kg was kept in house for two weeks prior to initiating the experiment. The animal was fed a basal diet ad libitum and housed individually in animal facilities (meeting American Association for Accreditation of Laboratory Animal) with controlled temperature (19-21° C.) and lights (12 h/12 h LD). The experimental animal protocols used for this study followed the federal guidelines for the care and use of laboratory animals (U.S. Department of Health and Human Services, U.S. Department of Agriculture). Animals were monitored daily for any observable signs of pain or discomfort. […] A small amount of the inoculum suspension was plated onto culture media to quantitate the exact concentration of viable organisms prior to the experiment. […] At each sampling time, sites were cultured quantitatively. […] Serial dilutions were made and scrub solutions were quantitated using the Spiral Plater System that deposits a small defined amount (50 μl) of suspension over the surface of a rotating agar plate. […]

[6] = tested on: P. aeruginosa; assay: P. aeruginosa infection in abraded mouse skin; type: in vivo; conditions: FIG. 4
[7] = tested on: S. aureus; assay: Suture skin infection (deep tissue infection) mouse model; type: in vivo; conditions: deep cut in mouse, S. aureus introduced into the incision; FIG. 13
Method: It was determined whether nisin and mupirocin, either alone or in combination with each other, would be able to treat S. aureus in a deep tissue infection model. A suture skin infection model was generated in which a deep cut (e.g., one needing sutures to close) was made in a mouse and S. aureus introduced into the incision. […] Thus, a combination of nisin and mupirocin can be used to treat a deep tissue infection as well as a […] infection.

[8] = tested on: S. aureus strain resistant to mupirocin; assay: Mupirocin-resistant S. aureus infection in abraded mouse skin; type: in vivo; conditions: FIG. 3
Method: as §1
Topical Ointment: 74 g of PEG 400 and 24 g of PEG 3350 were added to a 250 mL glass beaker and heated until all of the PEG 3350 was melted. […]
Treatment of Infected Skin with Topical Ointment: Treatments aimed to eradicate S. aureus skin infections in the mouse model were started on the morning after infection (Day 1). […] After mixing by vortex, 50 μL of each sample was streaked onto blood agar plates, incubated at 37° C. overnight, and the colonies were counted and compared to untreated controls. […]

| Molecule | ability to synergize in vitro with nisin [1] | synergy with nisin in the skin infection model [2] | efficacy compared with independent administration of nisin [3] | additive or synergistic effect when combined with nisin [3] | synergy with mupirocin in the skin infection model [2] | also measured |
| --- | --- | --- | --- | --- | --- | --- |
| gentamicin | none of the antimicrobials tested (i.e., mupirocin, neomycin, and gentamicin) displayed the ability to synergize in vitro with nisin | did synergize | – | – | – | – |
| lysostaphin | – | – | None of these antibacterial agents administered independently, or administered in a composition comprising nisin, were significantly more efficacious than the independent administration of nisin | no additive or synergistic effect was observed | – | – |
| neomycin | none of the antimicrobials tested (i.e., mupirocin, neomycin, and gentamicin) displayed the ability to synergize in vitro with nisin | did not synergize | – | – | – | – |
| gallidermin | – | did not synergize | – | – | did synergize | – |
| CC[C@H](C)[C@H](N)C1=N[C@H](C(=O)N[C@@H](CC(C)C)C(=O)N[C@H](CCC(=O)O)C(=O)N[C@H](C(=O)N[C@H]2CCCCNC(=O)[C@H](CC(N)=O)NC(=O)[C@@H](CC(=O)O)NC(=O)[C@H](Cc3cnc[nH]3)NC(=O)[C@@H](Cc3ccccc3)NC(=O)[C@H]([C@@H](C)CC)NC(=O)[C@@H](CCCN)NC2=O)[C@@H](C)CC)CS1 [bacitracin] ({Ileψ(thiazoline)Cys}-L[dE]IK[dOrn]I[dF]H[dD]N; lactam 4-C) | – | – | None of these antibacterial agents administered independently, or administered in a composition comprising nisin, were significantly more efficacious than the independent administration of nisin | no additive or synergistic effect was observed | did not synergize with bacitracin, nor was there an additive benefit; also recorded: does not synergize with or provide additive benefit together with bacitracin | – |
| C/C(=C\C(=O)OCCCCCCCCC(=O)O)C[C@@H]1OC[C@H](C[C@@H]2O[C@H]2[C@@H](C)[C@H](C)O)[C@@H](O)[C@H]1O [Mupirocin, mupirocin] | none of the antimicrobials tested (i.e., mupirocin, neomycin, and gentamicin) displayed the ability to synergize in vitro with nisin | – | – | – | – | activity against P. aeruginosa [4]: poor activity; Av. Count (S. aureus recovered from wounds) ([5]; Day 7 post treatment): 1.63 ± 1.42 Log cfu/ml; Av. Count (S. aureus recovered from wounds) ([5]; two days after initial treatment): 4.96 ± 0.8 Log CFU/ml; additional activity added to the nisin formulation [6]: does not add any additional activity; efficacy in treating S. aureus in suture infection model [7]: very little efficacy; activity against mupirocin-resistant S. aureus strain [8]: minimal activity; decrease in infectious CFUs ([3]; abraded mouse skin, drug alone in PEG ointment, 3 times a day on Days 1 and 2, skin sampled Day 3, vs untreated controls, FIG. 1): 3 logs; animals cleared of infection ([3]; abraded mouse skin, topical ointment 3 times a day on Days 1 and 2, FIG. 1): Neither drug alone was able to completely clear the infection |
